Assay [1] deals with panel of 60 human cancer cell lines. Kind of assay: cells. The settings on record: read-out: GI50 concentration range.
The next assay concerns MDA-MB-231 cells. The experiment in a line: Cell cycle analysis by flow cytometry. The format is cell-based, human. The note with it: at 6 and 12 h; control 1–2%.
Another assay relates to NCI-H226. Kind of assay: NCI-60 SRB growth assay. The format is cell-based, human. The settings on record: for GI50 / CC50: Homo sapiens; for GI50: NCI-H226; for TGI: NCI–H226; for CC50: NCI-H226, read-out: LC50.
For a further assay, the system named is LOX IMVI. The experiment in a line: NCI-60 SRB growth assay. The format is cell-based, human.
In the next assay the test system is RPMI-8226. Kind of assay: NCI-60 SRB growth assay. Format: cell-based, human. The settings on record: for GI50 / CC50: Homo sapiens; for GI50 / TGI: RPMI-8226; for CC50: RPMI-8226, read-out: LC50.
In another assay the test system is HT29. Kind of assay: NCI-60 SRB growth assay. Format: cell-based, human. The note with it: for TGI: HT29; for GI50 / CC50: Homo sapiens; for GI50: HT-29; for CC50: HT-29, read-out: LC50.
In a further assay the test system is HCT-15. Kind of assay: NCI-60 SRB growth assay. Format: cell-based, human. The note with it: for TGI / GI50: HCT-15; for GI50 / CC50: Homo sapiens; for CC50: HCT-15, read-out: LC50.
For another assay, the system named is TK-10. Kind of assay: NCI-60 SRB growth assay. The settings on record: for GI50 / CC50: Homo sapiens; for GI50 / TGI: TK-10; for CC50: TK-10, read-out: LC50. The format is cell-based, human.
The test system of a further assay is SK-OV-3. The experiment in a line: NCI-60 SRB growth assay. The note with it: for GI50 / CC50: Homo sapiens; for GI50 / TGI: SK-OV-3; for CC50: SK-OV-3, read-out: LC50. Format: cell-based, human.
For the next assay, the system named is SNB-19. The experiment in a line: NCI-60 SRB growth assay. The format is cell-based, human. The note with it: for CC50: SNB-19, read-out: LC50.

Bounds are passed on as bounds.

Turning to `CCCCN1CCN(c2ccc3[nH]c(-c4ccc5[nH]c(-c6ccc(C(F)(F)F)cc6)nc5c4)nc3c2)CC1` [12b, 5-(5-(4-Butylpiperazin-1-yl)-1H-benzo[d]imidazol-2-yl)2(4(trifluoromethyl)phenyl)-1H-benzo[d]imidazole], the concentration for total growth inhibition (TGI) with HL-60(TB) was 2.8 µM; in the assay with NCI-H226, 3.59 µM; with LOX IMVI, 1.1 µM; in the assay with RPMI-8226, 0.62 µM; with HT29 it was 1.42 µM; in the assay on HCT-15, 0.74 µM. Besides, the GI50 in assay [1] is 0.16 to 3.6 µM; in the assay on NCI-H226, 1.57 µM; with LOX IMVI (Homo sapiens), 0.38 µM; with RPMI-8226 it was 0.25 µM; with HT29, 0.34 µM; in the assay on HCT-15 it was 0.27 µM. Moreover, in the assay on MDA-MB-231 cells, the “cells in the sub-G1 phase” value is 7.4%.
Regarding `CCCCN1CCN(c2ccc3[nH]c(-c4ccc5[nH]c(-c6ccc(OCC)c(OCC)c6)nc5c4)nc3c2)CC1` [12a, 5-(4-Butylpiperazin-1-yl)-2-(2-(3,4-diethoxyphenyl)-1H-benzo[d]imidazol-5-yl)-1H-benzo[d]imidazole], the GI50 in [1] was 0.16 to 3.6 µM; with TK-10 it was 1.66 µM; in the assay with NCI-H226, 1.29 µM; in the assay with LOX IMVI (Homo sapiens), 0.42 µM; with RPMI-8226, 0.43 µM; with SK-OV-3 it was 1.33 µM. The GI50 came out at 1.22 µM with SNB-19 (Homo sapiens, SNB-19); 0.8 µM with HT29; 1.56 µM with HCT-15. The CC50 in the assay with TK-10 is above 100 µM; with NCI-H226, above 100 µM; in the assay with RPMI-8226, above 100 µM; in the assay on SK-OV-3, 8.01 µM; in the assay with SNB-19 (Homo sapiens) it was 5.58 µM; in the assay with HT29, 100 µM. The CC50 in the assay on HCT-15 worked out at 7.05 µM. In addition, the TGI with TK-10 was 5.17 µM; with NCI-H226, 3.95 µM; in the assay with LOX IMVI, 1.62 µM; with RPMI-8226, 2.06 µM; in the assay on SK-OV-3, 3.27 µM; with SNB-19 (SNB-19), 2.61 µM. Besides, the figures for the TGI with HT29 and in the assay with HCT-15 were 2.97 µM and 3.32 µM, respectively.
In the case of `CCCN1CCN(c2ccc3[nH]c(-c4ccc5[nH]c(-c6ccc(OCC)c(OCC)c6)nc5c4)nc3c2)CC1` [11a, 2-(2-(3,4-Diethoxyphenyl)-1H-benzo[d]imidazol-5-yl)-5-(4-propylpiperazin-1-yl)-1H-benzo[d]imidazole], the TGI amounted to 2.7 µM in the assay on HL-60(TB); 4.9 µM in the assay with TK-10; 3.5 µM with NCI-H226; 0.44 µM in the assay with LOX IMVI; 2.5 µM in the assay on RPMI-8226; 10.2 µM in the assay with SK-OV-3. Also, the total growth inhibition concentration (TGI) was found to be 2.18 µM in the assay with SNB-19 (SNB-19), 2.3 µM in the assay with HT29 and 18.9 µM in the assay with HCT-15. The GI50 in assay [1] was 0.16 to 3.6 µM; in the assay with TK-10, 1.22 µM; in the assay with NCI-H226, 0.8 µM; in the assay on LOX IMVI (Homo sapiens), 0.2 µM; in the assay with RPMI-8226 it was 0.47 µM; with SK-OV-3 it was 2.1 µM. Besides, the results for the GI50 in the assay on HT29 and with HCT-15 were 0.45 µM and 2.42 µM, respectively. Moreover, the CC50 is 2.47 µM in the assay with TK-10; 37.5 µM in the assay with NCI-H226; 0.96 µM in the assay with LOX IMVI (Homo sapiens, read-out: LC50); above 100 µM in the assay with RPMI-8226; 9.9 µM in the assay with SK-OV-3; 5.6 µM in the assay on SNB-19 (Homo sapiens). The CC50 with HT29 and in the assay on HCT-15 was above 100 µM throughout.

(Values after publication PMC8793051 (ACS Omega, 2022).)
